# Data reported in patent US11492341B2, “ACLY inhibitors and uses thereof” (Nimbus Artemis, Inc., priority 2018, dated 2022).
# Target: ACL (Homo sapiens (Human), UniProt P53396)
# Experiment: ADP-Glo Assay
# Assay type: biochemical
# Details: 3 nM ACL, 15 μM ATP, 3 μM CoA, 300 μM Citrate
# Experimental: Example 28. ADP-Glo Assay
# Compounds of the present invention were evaluated in an ADP-GLO assay as follows: a) Dilute cpd 1:3 in succession in DMSO by hand for each cpds for 12 pts b) Add 0.1 μL diluted cpd solution to assay plate, each dose with 2 replicates c) Centrifuge 1000 RPM for 1 min d) Add 5 μL ACL working solution to 384-well assay plate, centrifuge 1000 RPM for 1 min e) Incubate at 25° C. for 15 min f) Add 5 μL substrate working solution to initiate reaction g) Final ACL reaction concentrations: 3 nM ACL, 15 μM ATP, 3 μM CoA, 300 μM Citrate, 0.01% Brij35, 4 mM DTT, 1% DMSO; h) Reference final conc: 30 uM starting Conc, 3× dilution, 11+0 points. Test cpd conc: 30/100 uM starting Conc, 3× dilution, 11+0 points. i) Incubate at 25° C. for 60 min j) Add 10 μL ADP Glo reagent, centrifuge 1000 RPM for 1 min k) Incubate at 25° C. for 40 min l) Add 20 μL kinase detection reagent, centrifuge 1000 RPM for 1 min m) Incubate at 25° C. for 40 min n) Read on Envision for US LUM as RLU
# Chain of ACL (P53396 whole entry, species assumed): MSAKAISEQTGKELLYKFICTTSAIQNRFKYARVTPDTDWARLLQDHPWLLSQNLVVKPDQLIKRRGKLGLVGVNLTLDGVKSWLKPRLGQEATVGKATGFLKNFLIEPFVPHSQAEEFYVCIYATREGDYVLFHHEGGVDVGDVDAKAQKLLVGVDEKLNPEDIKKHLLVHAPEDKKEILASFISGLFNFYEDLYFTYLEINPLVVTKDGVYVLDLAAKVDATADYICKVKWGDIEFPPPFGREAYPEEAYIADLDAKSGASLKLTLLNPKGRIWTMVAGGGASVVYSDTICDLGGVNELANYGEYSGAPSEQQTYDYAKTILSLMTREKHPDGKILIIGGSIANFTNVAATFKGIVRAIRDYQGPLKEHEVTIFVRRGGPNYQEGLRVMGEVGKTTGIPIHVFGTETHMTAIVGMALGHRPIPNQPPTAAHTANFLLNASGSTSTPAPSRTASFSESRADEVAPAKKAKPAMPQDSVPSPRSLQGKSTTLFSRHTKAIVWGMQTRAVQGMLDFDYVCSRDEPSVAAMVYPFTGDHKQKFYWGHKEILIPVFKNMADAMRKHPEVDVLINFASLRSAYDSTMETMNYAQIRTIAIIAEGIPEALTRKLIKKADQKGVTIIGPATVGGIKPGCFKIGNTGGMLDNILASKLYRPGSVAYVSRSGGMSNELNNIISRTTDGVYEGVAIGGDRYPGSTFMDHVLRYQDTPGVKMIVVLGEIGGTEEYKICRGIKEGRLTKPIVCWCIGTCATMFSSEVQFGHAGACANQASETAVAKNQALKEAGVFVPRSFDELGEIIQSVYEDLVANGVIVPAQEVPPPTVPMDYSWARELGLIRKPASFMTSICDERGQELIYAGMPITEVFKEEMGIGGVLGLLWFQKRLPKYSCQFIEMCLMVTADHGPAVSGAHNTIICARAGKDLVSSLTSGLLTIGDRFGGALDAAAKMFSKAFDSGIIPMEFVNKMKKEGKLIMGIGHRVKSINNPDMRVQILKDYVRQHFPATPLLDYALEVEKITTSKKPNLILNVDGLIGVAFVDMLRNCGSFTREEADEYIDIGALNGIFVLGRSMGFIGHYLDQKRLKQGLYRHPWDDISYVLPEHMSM
row,SMILES,IC50 [µM]
1,CN(C)C(=O)c1ccc2cc(-c3ccccc3)n(S(=O)(=O)c3cc(Br)cc(Cl)c3O)c2c1 [I-80],0.5 to 20
2,N#Cc1ccc2c(c1)cc(C1CC1)n2S(=O)(=O)c1cc(F)cc(F)c1O [I-82],0.5 to 20
3,N#Cc1ccc2c(c1)cc(-c1cnc[nH]1)n2S(=O)(=O)c1cc(F)cc(F)c1O [I-83],0.5 to 20
4,O=C(O)c1cccc(-c2cc3cc(Cl)ccc3n2S(=O)(=O)c2cc(Cl)cc(Cl)c2)c1 [I-84],0.5 to 20
5,N#Cc1ccc2c(c1)cc(-c1cncs1)n2S(=O)(=O)c1cc(F)cc(F)c1O [I-85],0.5 to 20
6,O=S(=O)(c1cc(F)cc(F)c1O)n1c(-c2cncs2)cc2cc(F)ccc21 [I-86],0.5 to 20
7,O=C(O)c1ccc2c(c1)cc(-c1ccccc1)n2S(=O)(=O)c1cc(F)cc(F)c1 [I-87],0.5 to 20
8,O=C(O)Cc1cc2cc(Cl)ccc2n1S(=O)(=O)c1cc(Cl)cc(Cl)c1O [I-88],0.5 to 20
9,O=C(O)c1cc(Br)cc(S(=O)(=O)n2c(-c3ccccc3)cc3cc(Cl)ccc32)c1O [I-89],0.5 to 20
10,O=S(=O)(c1cc(F)cc(F)c1O)n1c(-c2cncnc2)cc2cc(Cl)ccc21 [I-90],0.5 to 20
11,O=S(=O)(c1cc(F)cc(F)c1O)n1c(-c2cccnc2)cc2cc(Cl)ccc21 [I-91],0.5 to 20
12,Cc1ccc2c(c1)cc(-c1cncnc1)n2S(=O)(=O)c1cc(F)cc(F)c1O [I-92],0.5 to 20
13,O=S(=O)(c1cc(F)cc(F)c1O)n1c(-c2ccncc2)cc2cc(Cl)ccc21 [I-93],0.5 to 20
14,O=S(=O)(c1cccc(Cl)c1O)n1c(-c2cncnc2)cc2cc(Cl)ccc21 [I-94],0.5 to 20
15,O=S(=O)(c1cc(F)cc(F)c1O)n1c(-c2ccccn2)cc2cc(Cl)ccc21 [I-95],0.5 to 20
16,Cc1ccc(-c2cc3cc(Cl)ccc3n2S(=O)(=O)c2cc(F)cc(F)c2O)nn1 [I-96],0.5 to 20
17,N#Cc1ccc2c(c1)cc(-c1cncnc1)n2S(=O)(=O)c1cc(F)cc(F)c1O [I-97],0.5 to 20
18,O=S(=O)(c1cc(F)cc(F)c1O)n1c(-c2ccc[n+]([O-])c2)cc2cc(Cl)ccc21 [I-98],0.5 to 20
19,O=S(=O)(c1cc(F)cc(F)c1O)n1c(-c2cccnn2)cc2cc(Cl)ccc21 [I-99],0.5 to 20
20,Cc1ncc(-c2cc3cc(Cl)ccc3n2S(=O)(=O)c2cc(F)cc(F)c2O)cn1 [I-100],0.5 to 20
21,Cc1cncc(-c2cc3cc(Cl)ccc3n2S(=O)(=O)c2cc(F)cc(F)c2O)n1 [I-101],0.5 to 20
22,Cc1ncncc1-c1cc2cc(Cl)ccc2n1S(=O)(=O)c1cc(F)cc(F)c1O [I-102],0.5 to 20

row,SMILES,IC50 [µM]
1,O=S(=O)(c1cc(F)cc(F)c1O)n1c(-c2ccnnc2)cc2cc(Cl)ccc21 [I-103],0.5 to 20
2,O=C(O)c1c(-c2ccccc2)c2cc(Cl)ccc2n1S(=O)(=O)c1cc(Cl)cc(Cl)c1 [I-104],0.5 to 20
3,O=S(=O)(c1cc(F)cc(F)c1O)n1c(-c2cnccn2)cc2cc(Cl)ccc21 [I-105],0.5 to 20
4,"O=S(=O)(c1ccccc1O)n1c(-c2ccccc2)cc2cc(Cl)ccc21 [I-106, 2-((5-chloro-2-phenyl-1H-indol-1-yl)sulfonyl)phenol]",≥ 20
5,"COc1c(Cl)cc(Br)cc1S(=O)(=O)n1c(-c2ccccc2)cc2cc(Cl)ccc21 [I-107, 1-((5-bromo-3-chloro-2-methoxyphenyl)sulfonyl)-5-chloro-2-phenyl-1H-indole]",≥ 20
6,CCOC(=O)c1cc2cc(Cl)ccc2n1S(=O)(=O)c1cc(Cl)cc(Cl)c1 [I-108],≥ 20
7,CN(C)C(=O)c1cc2cc(Cl)ccc2n1S(=O)(=O)c1cc(Cl)cc(Cl)c1O [I-111],0.5 to 20
8,O=S(=O)(c1cccc(F)c1O)n1c(-c2ccccc2)cc2cc(Cl)ccc21 [I-112],0.5 to 20
9,COC(=O)c1ccc2c(c1)cc(-c1ccccc1)n2S(=O)(=O)c1cc(F)cc(F)c1 [I-114],≥ 20
10,Cn1cc(-c2cc3cc(C#N)ccc3n2S(=O)(=O)c2cc(F)cc(F)c2O)cn1 [I-118],≥ 20
11,O=S(=O)(c1cncc(O)c1)n1c(-c2ccccc2)cc2cc(Cl)ccc21 [I-119],≥ 20
12,COC(=O)c1c(-c2ccccc2)c2cc(Cl)ccc2n1S(=O)(=O)c1cc(Cl)cc(Cl)c1 [I-120],≥ 20
13,O=C(O)c1cc(C(=O)O)c(O)c(S(=O)(=O)n2c(-c3ccccc3)cc3cc(Cl)ccc32)c1 [I-121],0.5 to 20
14,O=S(=O)(c1cc(F)cc(F)c1O)n1c(-c2cccc[n+]2[O-])cc2cc(Cl)ccc21 [I-126],≥ 20
15,Cc1cnc(-c2cc3cc(Cl)ccc3n2S(=O)(=O)c2cc(F)cc(F)c2O)cn1 [I-127],0.5 to 20
16,Cc1nccnc1-c1cc2cc(Cl)ccc2n1S(=O)(=O)c1cc(F)cc(F)c1O [I-135],0.5 to 20
17,"COc1ccc(Cn2cncc(-c3cc4cc(Cl)ccc4n3S(=O)(=O)c3cc(F)cc(F)c3O)c2=O)cc1 [I-136, 5-(5-chloro-1-((3,5-difluoro-2-hydroxyphenyl)sulfonyl)-1H-indol-2-yl)-3-(4-methoxybenzyl)pyrimidin-4(3H)-one]",0.5 to 20
18,O=S(=O)(c1cc(F)cc(F)c1O)n1c(-c2cnc(C(F)(F)F)nc2)cc2cc(Cl)ccc21 [I-137],0.5 to 20
19,COc1ncc(-c2cc3cc(Cl)ccc3n2S(=O)(=O)c2cc(F)cc(F)c2O)cn1 [I-138],0.5 to 20
20,O=S(=O)(c1cc(F)cc(F)c1O)n1c(-c2cnc(O)nc2)cc2cc(Cl)ccc21 [I-140],0.5 to 20
21,"O=c1[nH]cncc1-c1cc2cc(Cl)ccc2n1S(=O)(=O)c1cc(F)cc(F)c1O [I-141, 5-(5-chloro-1-((3,5-difluoro-2-hydroxyphenyl)sulfonyl)-1H-indol-2-yl)pyrimidin-4(3H)-one]",0.5 to 20
22,Cc1cc2cc(Cl)ccc2n1S(=O)(=O)c1cc(-c2ccccc2)cc(Cl)c1O [I-142],0.5 to 20

row,SMILES,IC50 [µM]
1,"O=S(=O)(c1cc(F)cc(F)c1O)n1c(-c2cc3ccccc3s2)cc2cc(Cl)ccc21 [I-143, 2-((2-(benzo[b]thiophen-2-yl)-5-chloro-1H-indol-1-yl)sulfonyl)-4,6-difluorophenol]",0.5 to 20
2,O=S(=O)(c1cc(Br)cc(Cl)c1O)n1c(-c2cc3ccccc3s2)cc2cc(Cl)ccc21 [I-144],0.5 to 20
3,"O=C(c1ccc2cc(-c3ccccc3)n(S(=O)(=O)c3cc(Br)cc(Cl)c3O)c2c1)N1CCC1 [I-145, Azetidin-1-yl(1-((5-bromo-3-chloro-2-hydroxyphenyl)sulfonyl)-2-phenyl-1H-indol-6-yl)methanone]",0.5 to 20
4,O=S(=O)(c1cc(Br)cc(Cl)c1O)n1c(-c2ccc(OC(F)(F)F)nc2)cc2cc(Cl)ccc21 [I-146],0.5 to 20
5,Cc1cn(S(=O)(=O)c2cc(Br)cc(Cl)c2O)c2ccc(Cl)cc12 [I-147],0.5 to 20
6,COC(=O)c1cc2c(cc1Cl)cc(C)n2S(=O)(=O)c1cc(Br)cc(Cl)c1O [I-148],0.5 to 20
7,Cc1cc2cc(Cl)ccc2n1S(=O)(=O)c1cc(Cl)c(O)cc1Br [I-149],0.5 to 20
8,COCOc1cc2c(cc1Cl)cc(C)n2S(=O)(=O)c1cc(Br)cc(Cl)c1O [I-150],0.5 to 20
9,O=S(=O)(c1cc(Br)cc(Cl)c1O)n1c(Cc2ccccc2OC(F)(F)F)cc2cc(Cl)ccc21 [I-151],0.5 to 20
10,O=S(=O)(c1cc(Br)cc(Cl)c1O)n1c(-c2cnc(C(F)(F)F)nc2)cc2cc(Cl)ccc21 [I-152],0.5 to 20
11,O=C(NO)c1ccc2cc(-c3ccccc3)n(S(=O)(=O)c3cc(Br)cc(Cl)c3O)c2c1 [I-154],0.5 to 20
12,Cc1nc(=O)c2cc(Cl)ccc2n1S(=O)(=O)c1cc(Br)cc(Cl)c1O [I-155],≥ 20
13,Cc1cc2cc(Cl)ccc2n1S(=O)(=O)c1cc(-c2cncs2)cc(Cl)c1O [I-156],0.5 to 20
14,O=C(O)c1cc2c(cc1Cl)cc(-c1cncnc1)n2S(=O)(=O)c1cc(Br)cc(Cl)c1O [I-157],0.5 to 20
15,Cc1cc2cc(Cl)c(O)cc2n1S(=O)(=O)c1cc(Br)cc(Cl)c1O [I-158],0.5 to 20
16,O=S(=O)(c1cc(Br)cc(Cl)c1O)n1cc(-c2cncs2)c2cc(Cl)ccc21 [I-159],< 0.5
17,Cc1cc2cc(Cl)c(C(=O)O)cc2n1S(=O)(=O)c1cc(Br)cc(Cl)c1O [I-160],0.5 to 20
18,N#Cc1ccc2c(c1)cc(-c1cc3ccccc3s1)n2S(=O)(=O)c1cc(Br)cc(Cl)c1O [I-161],0.5 to 20
19,O=C(c1cc2cc(Cl)ccc2n1S(=O)(=O)c1cc(Br)cc(Cl)c1O)N1CCC1 [I-162],0.5 to 20
20,O=C(c1cn(S(=O)(=O)c2cc(Br)cc(Cl)c2O)c2ccc(Cl)cc12)N1CCC1 [I-163],0.5 to 20
21,CCOC(=O)c1cc2cc(Cl)ccc2n1S(=O)(=O)c1ccc(-c2ccccc2)cc1F [I-164],≥ 20
22,COc1c(F)cc2cc(C)n(S(=O)(=O)c3cc(Br)cc(Cl)c3O)c2c1F [I-165],0.5 to 20
